Here are results for six compounds from article PMC10499324, “The differing effects of a dual acting regulator on SIRT1” (Frontiers in Molecular Biosciences, 2023).

The target of assay [1] is T1, hSIRT1-143 (Homo sapiens, UniProt Q96EB6).
T1 construct: Schematic of SIRT1-143 design, consisting of residues 143–512 and the region 641–665; SUMO (smt3) (N, cleaved yes); His tag (N, cleaved yes); made in house; host or cells: E. coli BL21 (DE3)
T1 sequence (Q96EB6 143-512 limits assumed): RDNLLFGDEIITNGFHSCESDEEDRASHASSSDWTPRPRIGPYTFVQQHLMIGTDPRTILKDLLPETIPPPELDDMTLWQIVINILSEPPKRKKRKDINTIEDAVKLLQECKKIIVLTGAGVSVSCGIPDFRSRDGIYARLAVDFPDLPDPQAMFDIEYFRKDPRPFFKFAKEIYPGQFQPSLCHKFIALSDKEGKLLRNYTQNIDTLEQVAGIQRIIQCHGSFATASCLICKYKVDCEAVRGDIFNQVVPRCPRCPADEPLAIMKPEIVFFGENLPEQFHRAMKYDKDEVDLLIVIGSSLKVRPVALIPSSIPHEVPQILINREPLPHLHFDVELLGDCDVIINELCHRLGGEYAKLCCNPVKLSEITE
T1 sequence (Q96EB6 641-665 limits assumed): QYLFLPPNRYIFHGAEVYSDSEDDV
Briefly: Enzyme-coupled continuous SIRT1 deacetylase kinetics assay (Michaelis-Menten). The assay is classed as biochemical. The following applies: for K M / k cat / k cat/K M: peptide as substrate, without resveratrol. The method, then:
Assays were conducted in accordance with a prior publication ([Smith et al., 2009]). Peptide substrates were 11 or 13-mer peptides with acetylated lysine at the middle residue position, synthesized and purified by Elim BioPharm (Hayward, CA) to a purity of 90%. The following reagents were used in the assay mixtures: 5–640 μM peptide substrate, 640 μM NAD^+, 2 mM MPB-PncA (nicotinamidase), 20 mM phosphate buffer pH 7.6, 3 mM α-ketoglutarate, 1 mM DTT, 0.2 mM NADPH, and 6.7 units of glutamate dehydrogenase. Then, 0.2–1 μM of the SIRT1 enzyme was added to start the reactions. SIRT1 reactions were conducted in a transparent, flat-bottomed, 96-well plate with a final volume of 150 μL per well and read with a BioTek™ Synergy HTX Multimode Reader. […] After SIRT1 was added, absorbance at 340 nm was measured to quantify the rate of NADPH depletion for a duration of 10 min. Initial rates of the reaction were calculated using 6.22 mM^-1cm^-1 as the extinction coefficient for NADPH and fitting the slope of the linear component of the reaction. The initial velocity of the reaction absent the peptide substrate, which served as a background control, was subtracted from the initial velocities of all other reactions. By fitting the initial rate data to the Michaelis-Menten equation in GraphPad Prism, the values for k cat and K M were obtained.

The target in assay [2] is T1, hSIRT1-143. Nature of the assay: Differential scanning fluorimetry (SYPRO Orange) thermal stability of SIRT1 complexes. Format: binding. Particulars: 200 μM resveratrol. The method, then:
Differential Scanning Fluorimetry experiments were performed in a 384-well plate using a qTOWER real-time PCR thermal cycler (Analytik Jena). Fluorescence intensity was measured in the TAMRA channel (Ex: 535 nm Em: 580 nm) over a period of 1 h with a 1°C increase temperature ramp per cycle in “Normal” mode. […] 1:100 SYPRO® Orange (Millipore) dye diluted in buffer was also added to each well. All measurements were performed in triplicate, with buffer-only controls containing ADPr, resveratrol, and peptide performed for all conditions. Tma was calculated using the first derivative method and fitting a Lorentzian distribution to the first derivative curve (Tma = center of curve/inflection point) in GraphPad Prism ([Wu et al., 2020]).
(In general: Differential scanning fluorimetry follows unfolding on heating by fluorescence.)

Assay [3] concerns the target T1, hSIRT1-143. The description is as above. The assay is classed as binding. The following applies: SIRT1•ADPr•Ac-H3; 200 μM resveratrol; single data set.
Assay [4] concerns the target T1, hSIRT1-143. Nature of the assay: Small angle X-ray scattering (SAXS) of SIRT1 complexes. As to Rg: values in Å. As to Rxs: values in Å. Particulars: for Rg / Rxs: + 200 μM resveratrol; for Δ Rg / Δ Rxs: + vs - 200 μM resveratrol. The method, then:
SAXS samples were prepared with 40 μM of hSIRT1-143 in storage buffer (50 mM Tris pH 8.0, 150 mM NaCl, 1 mM DTT). All samples contained 640 μM of NAD^+ analog ADPr (adenosine diphosphate ribose) except for the apo SIRT1 sample. Varying concentrations of different peptide substrates (500–5,000 μM) were added to the different samples. The concentration of peptide substrate added was determined based on previous kinetics assays to ensure that SIRT1 is mostly saturated with the peptide.
With an X-ray wavelength of 1.216 Å and a sample-to-detector distance of 2070 mm, the scattering vector, q, varied from 0.01 to 0.45. Where 2θ is the scattering angle, the scattering vector is defined as q = 4π sin θ/λ. The experiments were conducted at a temperature of 20°C. The sample was placed for 10 s with the detector framing at 0.3 s to optimize the signal using the SAXS FrameSlice program (https://bl1231.als.lbl.gov/ran). ATSAS 3.0 Primus software was utilized to plot and analyze the combined SAXS ([Manalastas-Cantos et al., 2021]).

[5] abbreviates: towards Ac-p53W, 200 μM resveratrol.

Where “and” joins values, the source holds several entries; their conditions need not be identical. Identical values can stand only once. Where no end group is shown, it is not given here.

With `Oc1ccc(/C=C/c2cc(O)cc(O)c2)cc1` [resveratrol], in assay [1] (towards Ac-p53, Ac-H4, Ac-H3 and Ac-CSNK, 200 μM resveratrol), the “increases in K M” value was 2-6 fold. Moreover, the “decrease in K M” value in assay [1] (setting [5]) was determined as 2 fold. In addition, the “increase of overall SIRT1 activity (k cat/K M)” value in assay [1] (setting [5]) is given as 2 fold. Also, the “effect on k cat values” in assay [1] (towards any of the peptide substrates, 200 μM resveratrol) was “did not have significant effects”. Moreover, the “decrease of Tma” value worked out at 0.2 °C in assay [2] (SIRT1 in complex with ADPr) and 1.7 °C in assay [2] (apo SIRT1). In addition, the “decrease of melting temperature” value in assay [2] (SIRT1•ADPR•Ac-p53W complex) was 1 °C. The “Tma + res” value in assay [2] (SIRT1•ADPr) was found to be 49.9 ± 0.44 °C; in assay [2] (SIRT1•ADPr•Ac-CSNK), 46.0 ± 0.94 °C; in assay [2] (SIRT1•ADPr•Ac-H4) it was 46.5 ± 1.49 °C; in assay [2] (SIRT1•ADPr•Ac-p53), 48.2 ± 0.54 °C; in assay [2] (SIRT1•ADPr•Ac-p53W), 49.5 ± 0.46 °C; in assay [2] (apo SIRT1), 49.4 ± 0.48 °C. Further, the “Tma + res” value in assay [3] was 46.3 ± 0.55 °C. For the same compound, the Rg was 35.45 Å in assay [4] (SIRT1•ADPr); 33.87 Å in assay [4] (SIRT1•ADPr•Ac-CSNK); 35.94 Å in assay [4] (SIRT1•ADPr•Ac-H3); 36.99 Å in assay [4] (SIRT1•ADPr•Ac-H4); 34.92 Å in assay [4] (SIRT1•ADPr•Ac-p53); 36.91 Å in assay [4] (SIRT1•ADPr•Ac-p53W). For the same compound, in assay [4] (apo SIRT1), the Rg is 32.26 Å. In addition, the Rxs in assay [4] (SIRT1•ADPr) was determined as 14.19 Å; in assay [4] (SIRT1•ADPr•Ac-CSNK), 12.67 Å; in assay [4] (SIRT1•ADPr•Ac-H3), 12.42 Å; in assay [4] (SIRT1•ADPr•Ac-H4) it was 13.7 Å; in assay [4] (SIRT1•ADPr•Ac-p53), 14.37 Å; in assay [4] (SIRT1•ADPr•Ac-p53W), 13.86 Å. Further, the Rxs in assay [4] (apo SIRT1) is reported as 11.26 Å. In addition, the “Δ Rg” value in assay [4] (SIRT1•ADPr) is 1.7%; in assay [4] (SIRT1•ADPr•Ac-CSNK), 4.9%; in assay [4] (SIRT1•ADPr•Ac-H3), 3.1%; in assay [4] (SIRT1•ADPr•Ac-H4), 7.3%; in assay [4] (SIRT1•ADPr•Ac-p53), 9.2%; in assay [4] (SIRT1•ADPr•Ac-p53W), 9% and 8.9%. Besides, the “Δ Rg” value in assay [4] (apo SIRT1) is reported as 6.3%. Also, the “Δ Rxs” value was 39.9% in assay [4] (SIRT1•ADPr); 7% and 6.9% in assay [4] (SIRT1•ADPr•Ac-p53W); 9.7% in assay [4] (apo SIRT1).
“^2ASSSGSK^AcAEFIVG^14 (ASSSGSK(Ac)AEFIVG; UniProt P48729 2-14, looked up, fragment) [Ac-CSNK, 13-mer SIRT1 peptide substrate with acetylated lysine, casein kinase 1 alpha 1 (K8)]”: in assay [1], the “K M” value was found to be 78 ± 2.2 µM, the k cat amounted to 0.06 ± 0.002 s⁻¹ and the “k cat/K M” value is 700 ± 200 M⁻¹ s⁻¹.
In the same order, the values of ^3VRGKAGK^AcGLGKGG^15 [Ac-H4] are 108 ± 5.5 µM, 0.09 ± 0.006 s⁻¹ and 1000 ± 400 M⁻¹ s⁻¹.
^9KSTGGK^AcAPRKQ^19 [Ac-H3]: in assay [1], the “K M” value was 121 ± 12.6 µM, the k cat was found to be 0.06 ± 0.009 s⁻¹ and the “k cat/K M” value worked out at 500 ± 300 M⁻¹ s⁻¹.
In the same order, the values of “^376STSRHKK^AcLMFKTE^388 (STSRHKK(Ac)LMFKTE; UniProt P04637 376-388, looked up, fragment) [Ac-p53, 13-mer SIRT1 peptide substrate with acetylated lysine, p53(K382)]” are 25 ± 0.2 µM, 0.08 ± 0.009 s⁻¹ and 3000 ± 30 M⁻¹ s⁻¹.
On to ^376STSRHKK^AcWMFKTE^389 [Ac-p53W], for which, in assay [1], the “K M” value stood at 13 ± 1.4 µM, the k cat came to 0.06 ± 0.001 s⁻¹ and the “k cat/K M” value is 5000 ± 500 M⁻¹ s⁻¹.
